Reference: patent US11890349B2, “Treatment of inflammatory diseases with inhibitors of C5A activity” (InflaRx GmbH, priority 2017, dated 2024)

Tests used:
[1] = tested on: CD11b upregulation on the surface of neutrophils; test: Human CD11b potency assay (flow cytometric assay) with HS patient plasma or rhC5a-spiked human plasma; type: cell-based
Text: Accumulation of neutrophils at the site of inflammation is dependent on the expression of adhesion molecules, including CD11b (also known as integrin alpha M) (Larson and Springer, 1990; Carlos and Harlan, 1990). Upregulation and mobilizing of CD11b/CD18 from intracellular pools to the surface of neutrophils is essential for the rolling action and migration of human neutrophils (Smith et al., 1989). Enhanced expression of CD11b/CD18 therefore reflects an inflammatory triggering event. The human CD11b assay is conducted using flow cytometry to detect FITC-conjugated anti-CD11b antibody on the surface of neutrophils. Activated complement products, especially elevated endogenous C5a (eC5a) in HS patient plasma samples can strongly upregulate CD11b expression through the binding of C5a to its receptor C5aR (CD88) on neutrophils. Consequently, blockade of the C5a-C5aR axis is expected to abolish or attenuate CD11b upregulation on the surface of neutrophils.
Two patient plasma samples Pat. 088 and Pat. 092 (5 μL) were incubated with fresh human blood (60 μL, as source of neutrophils) in the absence or presence of C5a-C5aR axis blockers (anti-C5a antibody IFX-1, anti-C5aR antibodies clone S5/1 and clone 7H110, C5aR antagonist PMX-53, and C5aR inhibitor Avacopan; 10 μL) in a total volume of 100 μL. Two control plasma samples (Ctrl 009 and Ctrl 010, 5 μL) prepared according to the procedure applied to the patient samples served as controls for unspecific activation. Blood with only saline (40 μL) or normal human plasma pool (huPP 5 μL+saline 35 μL) served as the non-stimulated control to define the baseline expression of CD11b. Blood sample with normal human plasma pool and spiked with recombinant human C5a (rhC5a) mimicked the stimulated condition. All samples were incubated at 37° C. for 20 min to activate CD11b upregulation. After cooling on ice, 2 μL of FITC-conjugated anti-mouse CD11b antibody was added to the samples. The labeled samples were kept on ice in the dark for another 30-min to minimize the background signal. Red blood cells were then lysed with 1×FACS Lysing solution at room temperature for 10 min. 2 mL Staining buffer was used to wash the remaining cells twice. After centrifugation at 2500 rpm for 3 min, cells were resuspended in 0.5 mL Staining buffer and ready for FACS analysis. A gate was set on the FSC vs. SSC plot to allow analysis only of cells with the size of neutrophils.
The percentage of blocking activity (BA) of the C5a-C5aR axis blockade test material was calculated using the formula below. Where MFI is the mean fluorescence intensity emitted from the CD11b-bound FITC on neutrophils. BA (%)=(MFIPatient plasma−MFITest material spiked patient plasma)÷(MFIPatient plasma−MFIhuPP)×100 b) Statistical Analysis

cynomolgus monkey = test: Nonclinical tests and studies including GLP toxicology studies in cynomolgus monkey; settings: in vitro/ex vivo tests and in vivo studies incl. GLP toxicology in cynomolgus monkey
human = settings: in vivo
[2] = tested on: zymosan-induced generation of IL-8 in human whole blood; test: Cytokine IL-8 ELISA after zymosan A stimulation of human whole blood; type: cell-based; settings: various concentrations of zymosan A, FIG. 4
Description: Human IL-8 ELISA was performed as recommended in the instruction manual under section “Assay procedure” (eBioscience Inc., San Diego, CA). Briefly, coating was performed overnight at 4° C. using 100 μl 1× capture antibody. Plates were blocked using 200 μl 1× assay diluents at RT for 1 h. Standard stock solutions were diluted with 1× assay diluents to the desired concentration, followed by 6 serial 1:2 dilutions. Sample supernatants were diluted as required in 1× assay diluents. According to the “Assay procedure”, 100 μl of standard dilutions and sample dilutions were added to the coated plate and incubated at RT for 1 h, followed by the incubation with 100 μl 1× detection antibody (RT, 1 h) and 100 μl 1× avidin-HRP (RT, 30 min). Color development was performed with 100 μl TMB substrate solution at RT for 10 min in the dark and was terminated with 100 μl stop solution. Absorbance was read out within 30 min using the plate reader at 450 nm. Zero standard value (blank) was subtracted from all standards and samples. Cytokine concentration of samples was calculated using a log(x)/log(y) standard curve of included standard samples.
In the same experimental set-up, IL-8 levels were measured and used to assess the inflammatory response. IL-8 concentrations after various doses of zymosan A stimulation ranged from 458 pg/ml to 3218 pg/ml in the absence of IFX-1. […]

[3] = tested on: recombinant human C5a (rhC5a)-induced CD11b upregulation on blood neutrophils; test: CD11b assay in human whole blood stimulated with rhC5a; type: cell-based
Description: Human whole blood was stimulated with rhC5a or ZAP. To test the blocking activity of IFX-1 and irrelative control IgG4 on rhC5a, the antibodies were diluted to final Ab/Ag molar ratios of 1:1 and 0.5:1. To test the blocking activity of IFX-1 on eC5a, IFX-1 was diluted to reach final Ab/Ag molar ratios of approximately 4:1/3:1/2:1/1:1/0.5:1. Blood only with buffer served as a non-stimulation control to assess the baseline CD11b expression. Blood with antibody alone was used to determine the effects on CD11b expression of the antibody under non-stimulated condition. The complete mixture (Ab/Ag/blood) was incubated at 37° C. for 20 min to evaluate C5a-induced up-regulation of CD11b. After addition of anti-mouse CD11b:FITC samples were incubated for 30 min on ice to minimize background staining. Granulocytes were gated and mean fluorescence intensity (MFI) of FITC labeled (CD11b expressing) granulocytes was examined by flow cytometer.
Human blood was stimulated with rhC5a or zymosan A, and the complete mixture (Ab/Ag/blood) was incubated at 37° C. for 20 min to stimulate the C5a-induced up-regulation of CD11b. […] After lysis, cells were analyzed using flow cytometer. On the FSC/SSC dot-plot, granulocytes were gated and mean fluorescence intensity (MFI) of FITC labeled (CD11b expressing) granulocytes was examined for the whole sample set. […]

[4] = tested on: patients with moderate to severe hidradenitis suppurativa
Description: Primary objective of the trial was to explore the safety and tolerability of IFX-1 administered over 8 weeks. Secondary objectives of the trial were to assess the pharmacokinetics and pharmacodynamics of IFX-1 as well as to generate preliminary data on the efficacy of IFX-1 on clinical endpoints (e.g., HiSCR, DLQI, VAS for disease status, VAS for pain, HS-PGA, modified Sartorius Score) to generate further hypotheses. The enrolled patients were treated with 800 mg IFX-1 twice in the first week and once a week thereafter for the total 8-week treatment; i.e. IFX-1 was administered in nine intravenous doses of 800 mg IFX-1 on days 1, 4, 8, 15, 22, 29, 36, 43, and 50. All patients were followed up for 12 additional weeks.
• 1. Male or female patients ≥18 years old • 2. Written informed consent • 3. Diagnosis of HS for at least 1 year • 4. HS lesions in at least 2 distinct anatomic areas, one of which is Hurley Stage II or III • 5. Total AN (abscesses and nodules) count ≥3 • 6. Patients with either primary or secondary failure of biological treatment or are not eligible for treatment with other biologicals • NOTE: a primary failure is defined as an at least 12 week treatment with a biological compound without effect and a secondary failure as achieving an initial response after at least 12 week treatment with a biological compound followed by a relapse. • 7. […]

[5] = tested on: HS plasma-induced CD11b upregulation on blood neutrophils; test: CD11b upregulation on blood neutrophils induced by HS plasma (human whole blood model); type: cell-based; settings: HS plasma samples Pat. 088 and Pat. 092, FIG. 6
Text: To determine the role of C5a in the HS plasma sample on the neutrophil activation, the HS plasma samples with high levels of C5a were chosen and assessed by employing the human whole blood model. […] Recombinant human C5a was used as the positive control, while the plasma from healthy volunteers was chosen as the negative control. […] From these novel results the inventors concluded that blockade of C5a in HS patients is sufficient to achieve a strong suppression on neutrophil activation.

human C5a = biological target: T1, human C5a (Homo sapiens, UniProt P01031); test: In vitro blocking of C5a-induced biological effects; type: cell-based; settings: experimental in vitro settings
T1 sequence (P01031 678-751 limits assumed): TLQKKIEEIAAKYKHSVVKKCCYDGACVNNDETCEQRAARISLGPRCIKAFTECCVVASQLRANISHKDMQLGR

[6] = HS patient plasma Pat. 088, test material 100 μM
[7] = HS patient plasma Pat. 088, test material 500 μM
[8] = HS patient plasma Pat. 092, test material 100 μM
[9] = HS patient plasma Pat. 092, test material 500 μM
[10] = HS patient plasma Pat. 088, test material 50 nM
[11] = HS patient plasma Pat. 088, test material 20 μM
[12] = HS patient plasma Pat. 092, test material 50 nM
[13] = HS patient plasma Pat. 092, test material 20 μM
[14] = HS patient plasma Pat. 088, test material 20 nM
[15] = HS patient plasma Pat. 092, test material 20 nM

Molecule: Cc1ccc(NC(=O)[C@H]2CCCN(C(=O)c3c(C)cccc3F)[C@H]2c2ccc(NC3CCCC3)cc2)cc1C(F)(F)F [Avacopan, (2R,3S)-2-[4-(cyclopentylamino)phenyl]-1-(2-fluoro-6-methylbenzoyl)-N-[4-methyl-3-(trifluoromethyl)phenyl]piperidine-3-carboxamide]
- CD11b upregulation induced by HS patient plasma ([1]; 500 μM, FIG. 11): completely blocked
- Blocking activity (%) [1, 6]: 77.35%
- CD11b (mean MFI) [1, 6]: 5289
- Blocking activity (%) [1, 7]: 104.57%
- CD11b (mean MFI) [1, 7]: 3027
- Blocking activity (%) [1, 8]: 79.60%
- CD11b (mean MFI) [1, 8]: 5000
- Blocking activity (%) [1, 9]: 104.17%
- CD11b (mean MFI) [1, 9]: 3081.5

Molecule: Ac-Phe-cyclo(Orn-Pro-D-Cha-Trp-Arg) [PMX-53]
- CD11b upregulation induced by HS patient plasma samples as well as by rhC5a ([1]; 20 μM, FIG. 9B): completely abrogated
- Blocking activity (%) [1, 10]: 55.46%
- CD11b (mean MFI) [1, 10]: 4728.5
- Blocking activity (%) [1, 11]: 104.48%
- CD11b (mean MFI) [1, 11]: 2027.5
- Blocking activity (%) [1, 12]: 56.69%
- CD11b (mean MFI) [1, 12]: 4657.5
- Blocking activity (%) [1, 13]: 108.59%
- CD11b (mean MFI) [1, 13]: 1912.5
- CD11b (mean MFI) ([1]; huPP + rhC5a (20 nM), test material 50 nM): 4235.5
- CD11b (mean MFI) ([1]; huPP + rhC5a (20 nM), test material 20 μM): 1851
- CD11b (mean MFI) ([1]; huPP, non-stimulated, test material 50 nM): 2053.5
- CD11b (mean MFI) ([1]; huPP, non-stimulated, test material 20 μM): 2218.5
- Blocking activity (%) ([1]; rhC5a-spiked huPP (20 nM rhC5a), test material 50 nM): 50.30%
- Blocking activity (%) ([1]; rhC5a-spiked huPP (20 nM rhC5a), test material 20 μM): 107.88%

B1: IFX-1: chimeric monoclonal IgG4 antibody which specifically binds to the soluble human complement split product C5a (antibody, V domains shown)
VH: QVQLQQSGPQLVRPGTSVKISCKASGYSFTTFWMDWVKQRPGQGLEWIGRIDPSDSESRLDQRFKDRATLTVDKSSSTVYMQLSSPTSEDSAVYYCARGNDGYYGFAYWGQGTLVTVSS
VL: DIVLTQSPASLAVSLGQRATISCKASQSVDYDGDSYMKWYQQKPGQPPKLLIYAASNLQSGIPARFSGSGSGTDFTLNIHPVEEEDAATYYCQQSNEDPYTFGGGTKLEIK
- toxicological or safety concerns in nonclinical tests and studies (cynomolgus monkey): None of the conducted nonclinical tests and studies revealed any toxicological or safety concerns
- safety laboratory parameters, vital signs and ECG parameters (human): no clinically relevant time or dose-related changes
- CD11b upregulation by rhC5a and HS patient plasma samples (Pat. 088 and Pat. 092) ([1]; 20 nM, FIG. 10): completely abolish
- Blocking activity (%) [1, 14]: 101.74%
- CD11b (mean MFI) [1, 14]: 2209
- Blocking activity (%) [1, 15]: 103.70%
- CD11b (mean MFI) [1, 15]: 2147
- CD11b (mean MFI) ([1]; huPP + rhC5a (20 nM), test material 20 nM): 2067
- CD11b (mean MFI) ([1]; huPP, non-stimulated, test material 20 nM): 2352
- Blocking activity (%) ([1]; rhC5a-spiked huPP (20 nM rhC5a), test material 20 nM): 104.29%
- reduction rate of IL-8 generation [2]: up to 54%
- blocking of rhC5a-stimulated CD11b up-regulation on human neutrophils ([3]; human whole blood, Ab/Ag molar ratios 1:1 and 0.5:1, FIG. 1): completely blocked
- blocking of CD11b up-regulation stimulated by rhC5a ([3]; positive control of the zymosan A whole blood experiment, FIG. 3): 100%
- HiSCR responders ([4]; out of 11 patients treated up to Day 56, 800 mg i.v.): 8 patients
- HiSCR response rate ([4]; treatment period of 8 weeks, Day 56, 95% confidence interval 43% to 91%): 72.7%
- suppression of CD11b upregulation induced by HS plasma [5]: 100%
- efficiency of neutralizing the effects of 2 molecules C5a by one antibody (human C5a): ~100%
